The structures appear in SMILES notation. Counter-ions that a name gives are not always drawn.

A word on the EC50: it is the concentration at which the effect is half-maximal. Read a low EC50 as an effect from little substance.

In the first test the test system is CuFi-1 cells. In words: Secretory activity for chloride ions (MQAE fluorescence) in CuFi-1 cells. The test is classed as cell-based. As to conditions: Homo sapiens, CuFi-1, CuFi-1 cells, zinc final concentration 10 μM. As for the experimental part: Measurement of the secretory activity for chloride ions was performed in accordance with a previous report (West and Molloy, 1996). CuFi-1 cells were plated on a 96 well plate in 3×10^4 cells/well and incubated for two nights. After removing the culture medium, 100 μL/well of N-(ethoxycarbonylmethyl)-6-methoxyquinolinium bromide (MQAE) (diluted with culture medium and the concentration adjusted to 5 mM) was added. After the addition of MQAE, the cells were incubated for one night so that the indicator was passively loaded. After the loading, the cells were washed two times with Assay buffer, and 100 μL/well of Assay buffer was added. The secretory capacity for chloride ions was measured using FlexStation 1 (fluorescence wavelength of Ex: 355 nm/Em: 460 nm). In order to measure the basic value, nothing was added for 34 seconds immediately after the start of the measurement. Then, at this point, 100 μL/well of the test compound and zinc (final concentration: 10 μM) diluted with Assay buffer, which is free of chloride ions, was added, and the measurement was continued for 86 seconds (total measurement time: 120 seconds). The secretory capacity for chloride ions was calculated by dividing the average of RFU values in 10 seconds between 110 seconds and 120 seconds after the start of the measurement with the average between 0 second and 34 seconds (the basic value). The secretory activity for chloride ions of the test compound (EC50 value) was calculated by obtaining the secretory capacity for chloride ions at each concentration of the serially diluted test compound, and determining a concentration of the test compound that provides a secretory capacity of 50% from two secretory capacities and concentrations sandwiching 50% of the maximum response of each compound.
With `Cc1nc(C(=O)O)nc(C)c1Cc1ccccc1Cl` [Example 103, 5-(2-Chlorobenzyl)-4,6-dimethylpyrimidine-2-carboxylic acid], the EC50 was 20.8 nM.
Still for that read-out and setting: as for `CCCc1nc(C(=O)O)nc(OCC)c1Cc1ccc(Cl)cc1F` [Example 58], the figure is 13 nM; as for `CCOc1nc(C(=O)O)nc(C)c1Cc1ccc(F)cc1Cl` [Example 49], 24.8 nM; as for `CCc1nc(C(=O)O)nc(OC)c1Cc1ccccc1Cl` [Example 39], 5.5 nM.
As for `CNc1nc(C(=O)O)nc(C)c1Sc1ccccc1` [Example 23], the EC50 was found to be 86 nM.
Take `CNc1nc(C(=O)O)nc(C)c1Cc1ccccc1Cl` [Example 87, 5-(2-Chlorobenzyl)-4-methyl-6-(methylamino)pyrimidine-2-carboxylic acid]: the 50% effective concentration (EC50) was 8.2 nM.
The same measure, in the same setting: the same measure for `CCNc1nc(C(=O)O)nc(C(C)C)c1Sc1ccccc1Cl` [Example 19]: 13.1 nM.
Same read-out and setting: the same measure for `CSc1nc(C(=O)O)nc(C)c1Nc1ccccc1Cl` [Example 85, 5-((2-Chlorophenyl)amino)-4-methyl-6-(methylthio)pyrimidine-2-carboxylic acid hydrochloride]: 30.2 nM; for `CNc1nc(C(=O)O)nc(C(C)C)c1Cc1ccccc1Cl` [Example 13, 5-(2-Chlorobenzyl)-4-isopropyl-6-(methylamino)pyrimidine-2-carboxylic acid]: 5.6 nM; for `Cc1nc(C(=O)O)nc(OCc2ccccc2)c1Cc1ccccc1Cl` [Example 90]: 6.4 nM.
The same measure, in the same setting: the same measure for `Cc1nc(C(=O)O)nc(OCc2ccccc2F)c1Cc1ccccc1Cl` [Example 99]: 5.1 nM; for `CCOc1nc(C(=O)O)nc(C)c1Cc1cccc(Cl)c1Cl` [Example 50]: 10.2 nM; for `CCSc1nc(C(=O)O)nc(C)c1Cc1ccc(Cl)cc1Cl` [Example 79, 5-(2,4-Dichlorobenzyl)-4-(ethylthio)-6-methylpyrimidine-2-carboxylic acid]: 6.6 nM.
For `CCc1nc(C(=O)O)nc(OCCCF)c1Cc1ccccc1Cl` [Example 63], the EC50 was determined as 4.8 nM.
For the molecule `COc1nc(C(=O)O)nc(C)c1Cc1ccc(F)cc1Cl` [Example 69], the half-maximal effective concentration (EC50) amounted to 26.7 nM. Against the preceding molecule, the EC50 is about 5.6-fold higher.
Molecule `CCc1nc(C(=O)O)nc(OC)c1Cc1ccccc1F` [Example 43] had an EC50 of 66.7 nM. This EC50 lies about 2.5-fold higher than the previous one.
The same measure, in the same setting: as for `COc1nc(C(=O)O)nc(C)c1Cc1ccc(Cl)cc1Cl` [Example 32, 5-(2,4-Dichlorobenzyl)-4-methoxy-6-methylpyrimidine-2-carboxylic acid], the figure is 17.1 nM; as for `Cc1nc(C(=O)O)nc(Cc2ccccc2Cl)c1Cc1ccccc1Cl` [Example 88, 4,5-Bis(2-chlorobenzyl)-6-methylpyrimidine-2-carboxylic acid], 7.1 nM; as for `CCOc1nc(C(=O)O)nc(CC)c1Cc1ccc(Cl)cc1F` [Example 51], 8.2 nM.
For `Cc1nc(C(=O)O)nc(NCCCOC(C)C)c1Cc1ccc(Cl)cc1Cl` [Example 5, 5-(2,4-Dichlorobenzyl)-4-((3-isopropoxypropyl)amino)-6-methylpyrimidine-2-carboxylic acid], it took 30.3 nM to reach a half-maximal effect (EC50).
The same measure, in the same setting: as for `Cc1nc(C(=O)O)nc(NCC(C)(C)O)c1Cc1ccc(Cl)cc1Cl` [Example 6, 5-(2,4-Dichlorobenzyl)-4-((2-hydroxy-2-methylpropyl)amino)-6-methylpyrimidine-2-carboxylic acid], the figure is 50.3 nM; as for `COc1ccc(Cc2c(C)nc(C(=O)O)nc2OC)c(Cl)c1` [Example 67], 15.9 nM.
The same measure, in the same setting: the same measure for `Cc1nc(C(=O)O)nc(OCc2ccccn2)c1Cc1ccccc1Cl` [Example 95]: 3.3 nM; for `CNc1nc(C(=O)O)nc(C)c1Sc1ccc(F)cc1Cl` [Example 29]: 6.9 nM.
On the same count and under the same terms, as for `CCOc1nc(C(=O)O)nc(C)c1Cc1ccccc1Cl` [Example 52, 5-(2-Chlorobenzyl)-4-ethoxy-6-methylpyrimidine-2-carboxylic acid hydrochloride], the figure is 15.8 nM; as for `Cc1nc(C(=O)O)nc(CCc2ccncc2)c1Cc1ccccc1Cl` [Example 101, 5-(2-Chlorobenzyl)-4-methyl-6-(2-(pyridin-4-yl)ethyl)pyrimidine-2-carboxylic acid], 8.9 nM; as for `CCc1nc(C(=O)O)nc(NC)c1Cc1ccccc1Cl` [Example 11, 5-(2-Chlorobenzyl)-4-ethyl-6-(methylamino)pyrimidine-2-carboxylic acid], 11.1 nM.
The molecule `CCCNc1nc(C(=O)O)nc(C)c1Cc1ccc(Cl)cc1Cl` [Example 2, 5-(2,4-Dichlorobenzyl)-4-methyl-6-(n-propylamino)pyrimidine-2-carboxylic acid hydrochloride] registered an EC50 of 24.2 nM.
Molecule `CCNc1nc(C(=O)O)nc(C)c1Sc1ccccc1F` [Example 25] had a 50% effective concentration (EC50) of 14.6 nM.
`COc1nc(C(=O)O)nc(C)c1Sc1ccc(Cl)cc1Cl` [Example 36] displayed a 50% effective concentration (EC50) of 80.6 nM.
Same read-out and setting: as for `CCCc1nc(C(=O)O)nc(OC)c1Cc1ccc(F)cc1Cl` [Example 46], the figure is 15.9 nM; as for `Cc1ccc(COc2nc(C(=O)O)nc(C)c2Cc2ccccc2Cl)cn1` [Example 96], 2.4 nM; as for `CCc1nc(C(=O)O)nc(OC)c1Cc1ccc(Cl)cc1F` [Example 42], 7.6 nM.
Molecule `CSc1nc(C(=O)O)nc(C)c1Cc1ccccc1Cl` [Example 76] displayed an EC50 of 15.2 nM. Against the preceding molecule, the EC50 is about 2-fold higher.
On the same count and under the same terms, as for `CNc1nc(C(=O)O)nc(C)c1Sc1cccc(Cl)c1Cl` [Example 28], the figure is 2.8 nM.
Molecule `CCc1nc(C(=O)O)nc(OC)c1Cc1ccc(F)cc1Cl` [Example 40] came in with a concentration for a half-maximal effect (EC50) of 8.1 nM. This EC50 lies about 2.9-fold higher than the previous one.
Still for that read-out and setting: as for `CCCc1nc(C(=O)O)nc(OC)c1Cc1ccccc1Cl` [Example 45, hydrochloride], the figure is 14.7 nM; as for `CNc1nc(C(=O)O)nc(C)c1Oc1ccc(Cl)cc1Cl` [Example 17, 5-(2,4-Dichlorophenoxy)-4-methyl-6-(methylamino)pyrimidine-2-carboxylic acid], 15.7 nM; as for `CCOc1nc(C(=O)O)nc(CC)c1Cc1cccc(F)c1Cl` [Example 61], 11.4 nM.
Take `Cc1nc(C(=O)O)nc(SC(C)C)c1Cc1ccccc1Cl` [Example 84]: a half-maximal effect (EC50) was put at 10.4 nM.
As to `CCNc1nc(C(=O)O)nc(CC)c1Cc1ccccc1Cl` [Example 12, 5-(2-Chlorobenzyl)-4-ethyl-6-(ethylamino)pyrimidine-2-carboxylic acid], the EC50 is 6.7 nM.
Still for that read-out and setting: as for `COc1nc(C(=O)O)nc(C(C)C)c1Cc1ccccc1Cl` [Example 70], the figure is 59.9 nM.

Another test concerns the target T1, GPR39 (Homo sapiens, UniProt O43194).
T1 construct: endogenous in cells; host or cells: CuFi-1 cells
T1 sequence (O43194 1-453): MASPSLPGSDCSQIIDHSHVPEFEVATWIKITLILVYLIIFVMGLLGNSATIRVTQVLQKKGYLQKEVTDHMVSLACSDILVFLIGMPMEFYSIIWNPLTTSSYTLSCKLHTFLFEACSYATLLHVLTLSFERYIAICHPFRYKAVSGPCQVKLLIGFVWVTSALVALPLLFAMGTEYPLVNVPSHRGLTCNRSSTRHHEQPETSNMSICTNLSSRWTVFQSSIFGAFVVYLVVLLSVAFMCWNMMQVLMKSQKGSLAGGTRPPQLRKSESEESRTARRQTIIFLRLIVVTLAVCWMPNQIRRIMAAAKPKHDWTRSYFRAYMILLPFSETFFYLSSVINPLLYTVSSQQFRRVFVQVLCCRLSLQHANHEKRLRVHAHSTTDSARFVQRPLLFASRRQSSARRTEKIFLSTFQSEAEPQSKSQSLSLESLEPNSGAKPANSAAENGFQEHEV
Nature of the test: Effects of GPR39 knockdown (siRNA) on chloride secretion in CuFi-1 cells. To be noted: GPR39 knockdown with siGPR39-1. The format is cell-based. An excerpt:
FIG. 2 is a graph showing effects on the chloride secretory activity of each compound in CuFi-1 cells through siRNA treatment. The vertical axis is expressed as an increase in the rate of the average value of fluorescence values at five points between 110 and 120 seconds, relative to the average value of fluorescence values at 17 points between 1 and 34 seconds within the measurement time of 120 seconds. The graph is shown with the mean value (N=8) and the standard deviation.
In order to confirm that chloride ion secretion by the test compound observed in Test. Example 1 was induced via GPR39, GPR39 knockdown was conducted. CuFi-1 cells cultured in Pneumacult-EX (STEMCELL Technologies Inc.) were plated on a 96 well plate in 3×10^4 cells/100 μL/well. Then, human GPR39 siRNA (MISSION siRNA SASI_Hs02_00332000, SASI_Hs02_00332001, Sigma-Aldrich Co. LLC) or control siRNA (Ambion Silencer Select, Thermo Fisher Scientific Inc.) was added in 1 pmol/10 μL/well using Lipofectamine RNAiMAX (Thermo Fisher Scientific Inc.), and the cells were incubated for two nights. In order for the final concentration to be 5 mM, 10 μL/well of N-(ethoxycarbonylmethyl)-6-methoxyquinolinium bromide (MQAE) diluted with culture medium was added. After the addition of MQAE, the cells were incubated for one night so that the indicator was passively loaded. Hereafter, washing and measurement of the secretory capacity for chloride ions were conducted in the same way as Test Example 1. In addition, analysis on gene expression of GPR39 was performed using RNA extracted from wells to which the same method was carried out. Total RNA was extracted from cells using RNAiso Plus (Takara Bio Inc.), and purified using RNeasy Micro Kit (Qiagen). Then, cDNA was synthesized using High Capacity cDNA Reverse Transcription Kit (Thermo Fisher Scientific Inc.), and quantitative PCR was conducted using TaqMan Gene Expression Assays (human GPR39: Hs00230762_m1, human GAPDH: Hs02758991_g1, Thermo Fisher Scientific Inc.) and THUNDERBIRD Probe qPCR Mix (TOYOBO CO., LTD.). Through the calibration curve method, a relative expression level of GPR39 compensated with GAPDH was calculated.
`O=c1ccn([C@@H]2O[C@H](COP(=O)(O)OP(=O)(O)OP(=O)(O)O)[C@@H](O)[C@H]2O)c(=O)[nH]1` [UTP, reference compound]: the “chloride ion secretion versus control siRNA” value is reported as 111%.

Staying with this test, now noted: GPR39 knockdown with siGPR39-2.
With `O=c1ccn([C@@H]2O[C@H](COP(=O)(O)OP(=O)(O)OP(=O)(O)O)[C@@H](O)[C@H]2O)c(=O)[nH]1` [UTP, reference compound], the “chloride ion secretion versus control siRNA” value was 89%.
